ChEMBL document CHEMBL5325437, “Shifting the selectivity of pyrido[2,3-d]pyrimidin-7(8H)-one inhibitors towards the salt-inducible kinase (SIK) subfamily” (Eur J Med Chem, 2023)
The source made the active and inactive calls. No cut-off for these calls is given here.

Key:
[1] = biological target: Serine/threonine-protein kinase 24 (Homo sapiens) (UniProt Q9Y6E0); assay: Binding affinity to recombinant MST3 (unknown origin) assessed as stabilization by measuring change in melting temperature at 10 uM by SYPRO orange dye based differential scanning fluorimetry assay
[2] = biological target: Serine/threonine-protein kinase 26 (Homo sapiens) (UniProt Q9P289); assay: Binding affinity to recombinant MST4 (unknown origin) assessed as stabilization by measuring change in melting temperature at 10 uM by SYPRO orange dye based differential scanning fluorimetry assay
[3] = Drug metabolism in Sprague-Dawley rat liver microsomes assessed as compound metabolized incubated for 60 mins in presence of NADPH by HPLC analysis; type: ADME, Microsome; conditions: 1 h
SK-OV-3 [4] = assay: Induction of cell cycle arrest in human SK-OV-3 cells assessed as accumulation of cells at interphase at 5 uM incubated for 24 hrs by flow cytometry; type: functional
Ephrin type-A receptor 2 = Ephrin type-A receptor 2 (Homo sapiens, UniProt P29317); assay: Inhibition of full length NanoLuc fused EPHA2 (unknown origin) transfected in HEK293T cells using NanoBRET NanoGlo substrate incubated for 2 hrs in presence of tracer by NanoBRET assay; type: cell-based
Ephrin type-A receptor 4 [5] = biological target: T1, Ephrin type-A receptor 4 (Homo sapiens, UniProt P54764); assay: Inhibition of full length NanoLuc fused EPHA4 (unknown origin) transfected in HEK293T cells using NanoBRET NanoGlo substrate incubated for 2 hrs in presence of tracer by NanoBRET assay; type: cell-based
[6] = biological target: Mitogen-activated protein kinase 8 (Homo sapiens, UniProt P45983); assay: Inhibition of full length NanoLuc fused JNK1 (unknown origin) transfected in HEK293T cells using NanoBRET NanoGlo substrate incubated for 2 hrs in presence of tracer by NanoBRET assay; type: cell-based
HCT-116 [7] = assay: Cytotoxicity against human HCT-116 cells assessed as reduction in cell count at 1 uM incubated for >60 hrs by Hoechst-33342 staining high-content imaging analysis; type: toxicity, cell-based; conditions: hct-116, 60 h
[8] = biological target: T2, Tyrosine-protein kinase ABL1 (Homo sapiens, UniProt P00519); assay: Inhibition of full length NanoLuc fused ABL1 (unknown origin) transfected in HEK293T cells using NanoBRET NanoGlo substrate incubated for 2 hrs in presence of tracer by NanoBRET assay; type: cell-based
[9] = biological target: Ephrin type-B receptor 3 (Homo sapiens) (UniProt P54753); assay: Binding affinity to recombinant EPHB3 (unknown origin) assessed as stabilization by measuring change in melting temperature at 10 uM by SYPRO orange dye based differential scanning fluorimetry assay
[10] = biological target: Serine/threonine-protein kinase SIK2 (Homo sapiens) (UniProt Q9H0K1); assay: Inhibition of SIK2 in human SK-OV-3 cells assessed as upregulation of cyclin A expression level at 5 uM incubated for 48 hrs by Western blotting analysis; type: cell-based
Ephrin type-B receptor 3 = Ephrin type-B receptor 3 (Homo sapiens, UniProt P54753); assay: Inhibition of full length NanoLuc fused EPHB3 (unknown origin) transfected in HEK293T cells using NanoBRET NanoGlo substrate incubated for 2 hrs in presence of tracer by NanoBRET assay; type: cell-based
Ephrin type-A receptor 3 = Ephrin type-A receptor 3 (Homo sapiens, UniProt P29320); assay: Inhibition of full length NanoLuc fused EPHA3 (unknown origin) transfected in HEK293T cells using NanoBRET NanoGlo substrate incubated for 2 hrs in presence of tracer by NanoBRET assay; type: cell-based
[11] = biological target: Cyclin-G-associated kinase (Homo sapiens) (UniProt O14976); assay: Binding affinity to recombinant GAK (unknown origin) assessed as stabilization by measuring change in melting temperature at 10 uM by SYPRO orange dye based differential scanning fluorimetry assay
[12] = biological target: Cyclin-G-associated kinase (Homo sapiens, UniProt O14976); assay: Inhibition of full length NanoLuc fused GAK (unknown origin) transfected in HEK293T cells using NanoBRET NanoGlo substrate incubated for 2 hrs in presence of tracer by NanoBRET assay; type: cell-based
[13] = Binding affinity to recombinant RSK1b (unknown origin) assessed as stabilization by measuring change in melting temperature at 10 uM by SYPRO orange dye based differential scanning fluorimetry assay; conditions: Homo sapiens
Ephrin type-A receptor 4 [14] = biological target: T1, Ephrin type-A receptor 4; assay: Binding affinity to recombinant EPHA4 (unknown origin) assessed as stabilization by measuring change in melting temperature at 10 uM by SYPRO orange dye based differential scanning fluorimetry assay
HCT-116 [15] = assay: Cytotoxicity against human HCT-116 cells assessed as appearance of pyknosis nuclei at 1 uM incubated for 80 hrs by Hoechst-33342 staining high-content imaging analysis; type: toxicity, cell-based; conditions: hct-116, 80 h
[16] = biological target: Serine/threonine-protein kinase PAK 1 (Homo sapiens) (UniProt Q13153); assay: Binding affinity to recombinant PAK1 (unknown origin) assessed as stabilization by measuring change in melting temperature at 10 uM by SYPRO orange dye based differential scanning fluorimetry assay
[17] = biological target: T2, Tyrosine-protein kinase ABL1; assay: Binding affinity to recombinant ABL1 (unknown origin) assessed as stabilization by measuring change in melting temperature at 10 uM by SYPRO orange dye based differential scanning fluorimetry assay
[18] = biological target: Ephrin type-B receptor 1 (Homo sapiens) (UniProt P54762); assay: Binding affinity to recombinant EPHB1 (unknown origin) assessed as stabilization by measuring change in melting temperature at 10 uM by SYPRO orange dye based differential scanning fluorimetry assay
SK-OV-3 [19] = assay: Induction of cell cycle arrest in human SK-OV-3 cells assessed as accumulation of cells at G1 phase at 5 uM incubated for 24 hrs by flow cytometry (reference value: 34%); type: functional
[20] = biological target: Serine/threonine-protein kinase SIK2 (Homo sapiens) (UniProt Q9H0K1); assay: Inhibition of SIK2 in human SK-OV-3 cells assessed as downregulation of AKT phosphorylation at Ser473 at 5 uM incubated for 48 hrs by Western blotting analysis; type: cell-based
Ephrin type-B receptor 2 = Ephrin type-B receptor 2 (Homo sapiens, UniProt P29323); assay: Inhibition of full length NanoLuc fused EPHB2 (unknown origin) transfected in HEK293T cells using NanoBRET NanoGlo substrate incubated for 2 hrs in presence of tracer by NanoBRET assay; type: cell-based
HCT-116 [21] = assay: Cytotoxicity against human HCT-116 cells assessed as decrease in cell viability at 10 uM incubated for 24 hrs by Hoechst-33342 staining high-content imaging analysis; type: toxicity, cell-based; conditions: hct-116, 24 h
[22] = biological target: Serine/threonine-protein kinase SIK2 (Homo sapiens) (UniProt Q9H0K1); assay: Inhibition of SIK2 in human SK-OV-3 cells assessed as decrease in centrosome dissociation in G2 phase at 5 uM incubated for 48 hrs by immunofluorescence assay; type: cell-based
[23] = biological target: Serine/threonine-protein kinase SIK2 (Homo sapiens) (UniProt Q9H0K1); assay: Inhibition of SIK2 in human SK-OV-3 cells assessed as upregulation of PLK expression level at 5 uM incubated for 48 hrs by Western blotting analysis; type: cell-based
HCT-116 [24] = assay: Cytotoxicity against human HCT-116 cells assessed as appearance of pyknosis nuclei at 10 uM incubated for 80 hrs by Hoechst-33342 staining high-content imaging analysis; type: toxicity, cell-based; conditions: hct-116, 80 h
[25] = biological target: Serine/threonine-protein kinase SIK2 (Homo sapiens) (UniProt Q9H0K1); assay: Inhibition of recombinant human GST-tagged SIK2 assessed as downregulation of SIK2 phosphorylation at Ser358 incubated for 30 mins by Western blotting analysis
[26] = biological target: Serine/threonine-protein kinase SIK2 (Homo sapiens) (UniProt Q9H0K1); assay: Inhibition of recombinant human GST-tagged SIK2 assessed as downregulation of SIK2 phosphorylation at Ser358 a 5 uM incubated for 30 mins by Western blotting analysis

Sequence of Serine/threonine-protein kinase SIK2 (Homo sapiens) (Q9H0K1 whole entry, looked up, the tested form may be a part): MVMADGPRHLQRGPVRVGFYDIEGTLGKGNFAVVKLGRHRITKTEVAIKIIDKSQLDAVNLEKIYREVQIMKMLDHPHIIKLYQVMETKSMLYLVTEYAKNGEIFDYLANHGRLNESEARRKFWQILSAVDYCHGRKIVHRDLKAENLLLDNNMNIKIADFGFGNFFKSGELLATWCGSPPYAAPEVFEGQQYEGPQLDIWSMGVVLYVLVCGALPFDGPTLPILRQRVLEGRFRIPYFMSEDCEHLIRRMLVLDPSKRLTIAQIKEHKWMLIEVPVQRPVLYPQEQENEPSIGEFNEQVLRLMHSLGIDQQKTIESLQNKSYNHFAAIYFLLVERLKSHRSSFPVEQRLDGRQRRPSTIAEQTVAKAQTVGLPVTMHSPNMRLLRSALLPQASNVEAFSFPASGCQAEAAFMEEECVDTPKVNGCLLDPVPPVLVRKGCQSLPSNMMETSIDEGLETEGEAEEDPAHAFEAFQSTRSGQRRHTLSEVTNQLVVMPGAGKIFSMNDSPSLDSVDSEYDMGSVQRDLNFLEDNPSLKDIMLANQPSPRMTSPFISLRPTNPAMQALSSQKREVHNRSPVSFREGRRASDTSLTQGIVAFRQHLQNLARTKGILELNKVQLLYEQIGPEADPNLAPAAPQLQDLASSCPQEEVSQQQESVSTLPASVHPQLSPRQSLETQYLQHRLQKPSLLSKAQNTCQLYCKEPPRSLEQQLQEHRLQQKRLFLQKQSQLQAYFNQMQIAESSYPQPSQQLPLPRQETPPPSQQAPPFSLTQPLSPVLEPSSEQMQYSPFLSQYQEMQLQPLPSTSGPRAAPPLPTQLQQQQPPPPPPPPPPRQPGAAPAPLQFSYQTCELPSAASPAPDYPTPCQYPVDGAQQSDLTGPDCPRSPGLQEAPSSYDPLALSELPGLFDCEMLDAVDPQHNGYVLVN
T1 sequence (P54764 whole entry, the tested form may be a part): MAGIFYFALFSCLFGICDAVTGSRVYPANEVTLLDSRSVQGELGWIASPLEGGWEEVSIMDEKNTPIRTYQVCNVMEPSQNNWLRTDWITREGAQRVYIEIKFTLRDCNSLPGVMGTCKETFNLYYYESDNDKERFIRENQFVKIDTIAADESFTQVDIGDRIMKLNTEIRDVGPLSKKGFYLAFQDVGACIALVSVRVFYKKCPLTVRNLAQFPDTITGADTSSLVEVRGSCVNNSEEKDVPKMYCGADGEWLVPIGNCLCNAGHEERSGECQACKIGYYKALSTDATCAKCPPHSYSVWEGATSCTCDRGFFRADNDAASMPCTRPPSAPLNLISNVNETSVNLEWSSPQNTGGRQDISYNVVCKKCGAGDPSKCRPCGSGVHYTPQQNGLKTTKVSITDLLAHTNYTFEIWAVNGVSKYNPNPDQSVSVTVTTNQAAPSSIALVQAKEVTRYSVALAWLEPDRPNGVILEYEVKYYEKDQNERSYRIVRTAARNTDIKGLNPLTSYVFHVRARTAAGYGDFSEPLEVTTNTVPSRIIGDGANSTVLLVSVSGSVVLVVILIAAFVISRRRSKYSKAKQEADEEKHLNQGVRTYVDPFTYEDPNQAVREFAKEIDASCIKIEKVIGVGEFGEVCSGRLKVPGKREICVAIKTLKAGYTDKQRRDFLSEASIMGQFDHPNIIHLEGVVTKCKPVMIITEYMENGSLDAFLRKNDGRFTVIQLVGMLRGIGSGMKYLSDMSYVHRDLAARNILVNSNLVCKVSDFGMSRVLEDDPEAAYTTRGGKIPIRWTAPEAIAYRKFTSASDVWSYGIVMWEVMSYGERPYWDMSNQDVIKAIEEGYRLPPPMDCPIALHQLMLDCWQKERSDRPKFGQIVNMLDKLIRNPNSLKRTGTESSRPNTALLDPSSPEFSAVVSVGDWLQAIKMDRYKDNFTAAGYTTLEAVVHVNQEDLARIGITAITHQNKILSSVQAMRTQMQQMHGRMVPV
T2 sequence (P00519 whole entry, the tested form may be a part): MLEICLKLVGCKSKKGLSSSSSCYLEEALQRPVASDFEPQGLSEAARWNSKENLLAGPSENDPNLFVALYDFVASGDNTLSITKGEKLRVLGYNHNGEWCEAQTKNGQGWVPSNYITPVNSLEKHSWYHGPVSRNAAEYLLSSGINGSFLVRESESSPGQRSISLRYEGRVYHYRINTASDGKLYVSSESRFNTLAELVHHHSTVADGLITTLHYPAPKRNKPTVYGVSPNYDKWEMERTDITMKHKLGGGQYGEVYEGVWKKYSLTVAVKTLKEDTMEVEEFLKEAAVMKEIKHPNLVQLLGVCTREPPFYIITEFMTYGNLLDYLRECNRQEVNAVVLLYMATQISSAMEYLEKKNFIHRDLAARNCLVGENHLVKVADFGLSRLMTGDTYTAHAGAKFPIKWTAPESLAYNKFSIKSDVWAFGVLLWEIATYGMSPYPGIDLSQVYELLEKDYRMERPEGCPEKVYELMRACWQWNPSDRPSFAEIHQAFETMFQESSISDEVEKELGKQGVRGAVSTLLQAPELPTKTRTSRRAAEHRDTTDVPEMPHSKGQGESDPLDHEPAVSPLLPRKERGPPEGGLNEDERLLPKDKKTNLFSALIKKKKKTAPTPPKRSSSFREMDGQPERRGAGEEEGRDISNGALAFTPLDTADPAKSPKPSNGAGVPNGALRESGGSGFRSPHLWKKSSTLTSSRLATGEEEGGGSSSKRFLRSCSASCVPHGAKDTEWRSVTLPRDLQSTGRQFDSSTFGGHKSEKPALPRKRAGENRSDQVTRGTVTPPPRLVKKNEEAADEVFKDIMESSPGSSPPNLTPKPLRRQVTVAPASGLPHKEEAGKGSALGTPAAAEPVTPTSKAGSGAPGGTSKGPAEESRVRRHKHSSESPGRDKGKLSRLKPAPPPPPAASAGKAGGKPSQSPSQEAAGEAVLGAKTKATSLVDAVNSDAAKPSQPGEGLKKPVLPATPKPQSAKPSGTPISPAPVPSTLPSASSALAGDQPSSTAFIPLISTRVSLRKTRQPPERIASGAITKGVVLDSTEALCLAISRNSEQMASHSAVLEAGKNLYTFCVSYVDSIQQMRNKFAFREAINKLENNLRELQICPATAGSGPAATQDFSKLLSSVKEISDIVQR
Sequence of Cyclin-G-associated kinase (Homo sapiens) (O14976 whole entry, the tested form may be a part): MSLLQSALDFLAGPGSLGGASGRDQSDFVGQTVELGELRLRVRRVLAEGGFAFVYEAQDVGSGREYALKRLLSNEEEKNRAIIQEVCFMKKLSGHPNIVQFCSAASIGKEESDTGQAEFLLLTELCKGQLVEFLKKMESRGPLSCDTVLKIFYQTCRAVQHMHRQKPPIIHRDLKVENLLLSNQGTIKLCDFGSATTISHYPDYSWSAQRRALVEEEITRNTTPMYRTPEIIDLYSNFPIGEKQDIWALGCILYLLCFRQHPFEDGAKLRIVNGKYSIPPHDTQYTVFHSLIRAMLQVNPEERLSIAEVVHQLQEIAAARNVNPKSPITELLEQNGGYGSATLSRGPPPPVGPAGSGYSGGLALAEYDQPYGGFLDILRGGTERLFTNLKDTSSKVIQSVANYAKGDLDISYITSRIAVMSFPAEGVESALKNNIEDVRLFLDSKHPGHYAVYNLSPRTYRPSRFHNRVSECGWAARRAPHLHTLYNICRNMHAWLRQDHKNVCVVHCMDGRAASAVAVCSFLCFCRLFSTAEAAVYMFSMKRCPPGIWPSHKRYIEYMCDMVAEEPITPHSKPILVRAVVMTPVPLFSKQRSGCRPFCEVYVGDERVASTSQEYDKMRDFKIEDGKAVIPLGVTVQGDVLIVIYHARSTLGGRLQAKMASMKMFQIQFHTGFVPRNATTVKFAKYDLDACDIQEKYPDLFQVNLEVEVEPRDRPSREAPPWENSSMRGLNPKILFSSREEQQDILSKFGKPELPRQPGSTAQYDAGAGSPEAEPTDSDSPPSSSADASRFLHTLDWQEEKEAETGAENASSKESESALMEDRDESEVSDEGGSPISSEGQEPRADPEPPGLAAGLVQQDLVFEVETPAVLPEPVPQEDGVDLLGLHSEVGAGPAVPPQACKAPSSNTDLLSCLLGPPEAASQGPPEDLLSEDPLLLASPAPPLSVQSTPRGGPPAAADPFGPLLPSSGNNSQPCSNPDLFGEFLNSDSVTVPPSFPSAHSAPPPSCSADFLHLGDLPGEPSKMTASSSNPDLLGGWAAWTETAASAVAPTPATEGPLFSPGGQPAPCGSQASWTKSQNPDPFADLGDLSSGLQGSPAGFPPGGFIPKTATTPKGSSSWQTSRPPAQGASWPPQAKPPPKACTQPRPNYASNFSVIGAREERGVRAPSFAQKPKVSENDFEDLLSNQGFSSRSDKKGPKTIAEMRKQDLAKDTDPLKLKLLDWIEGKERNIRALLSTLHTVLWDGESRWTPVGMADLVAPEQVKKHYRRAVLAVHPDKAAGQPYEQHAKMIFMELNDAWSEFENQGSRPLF
Sequence of Cyclin-G-associated kinase (O14976 whole entry, the tested form may be a part): as above
Sequence of Mitogen-activated protein kinase 8 (P45983 whole entry, the tested form may be a part): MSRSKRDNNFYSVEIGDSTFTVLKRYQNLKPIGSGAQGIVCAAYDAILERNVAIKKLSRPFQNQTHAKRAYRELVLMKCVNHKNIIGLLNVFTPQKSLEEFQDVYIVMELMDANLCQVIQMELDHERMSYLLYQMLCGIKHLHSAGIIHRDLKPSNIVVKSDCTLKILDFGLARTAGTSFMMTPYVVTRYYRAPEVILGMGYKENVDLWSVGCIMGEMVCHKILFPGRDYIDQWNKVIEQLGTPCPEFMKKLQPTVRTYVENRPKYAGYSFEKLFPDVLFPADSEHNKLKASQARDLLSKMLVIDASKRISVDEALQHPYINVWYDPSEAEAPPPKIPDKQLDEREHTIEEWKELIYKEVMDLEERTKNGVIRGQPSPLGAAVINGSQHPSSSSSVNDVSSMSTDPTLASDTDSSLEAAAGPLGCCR

ΔTm [1]: 1.5 °C
ΔTm [2]: 0.9 °C
Drug metabolism [3]: Metabolite_Detected
IC50 (Ephrin type-A receptor 2): 2.1 µM
IC50 (Ephrin type-A receptor 4 [5]): 1.6 µM
IC50 [6]: 23.2 µM
IC50 [8]: 28.1 µM
ΔTm [9]: 5.6 °C
inhibition [10]: Active
IC50 (Ephrin type-B receptor 3): 18.3 µM
IC50 (Ephrin type-A receptor 3): 2.1 µM
ΔTm [11]: 5.9 °C
IC50 [12]: 33.8 µM
ΔTm [13]: 15.1 °C
ΔTm (Ephrin type-A receptor 4 [14]): 5.5 °C
ΔTm [16]: 0 °C
ΔTm [17]: 7.4 °C
ΔTm [18]: 7 °C
inhibition [20]: Active
IC50 (Ephrin type-B receptor 2): 22.6 µM
inhibition [22]: Active
inhibition [23]: Active
inhibition [25]: Dose-Dependent Effect
inhibition [26]: Active
SMILES: CNc1ncc2cc(-c3cc(F)ccc3F)c(=O)n(CCCCN)c2n1
Activity (SK-OV-3 [4]): 69%
Activity (HCT-116 [7]): Toxic
Activity (HCT-116 [15]): Toxic
Activity (SK-OV-3 [19]): 50%
Activity (HCT-116 [21]): Toxic
Activity (HCT-116 [24]): 30%
